Experimental data reported in PubChem BioAssay AID330 (DTP/NCI, 2004).
“And” between values parts separate entries of the source, which are not always exact repeats. Equal entries are not always repeated. Inconclusive results and toxic doses are left out. Rule for the calls: active = survival T/C of 150% or more; inactive = T/C below 125% in these data. Square brackets hold non-standard residues; d marks the D form. Peptide text beside a SMILES is read from it. * marks the point of attachment. ξ: configuration not given here. ξF = NC(Cc1ccccc1)C(=O)O; Cbz = O=C(OCc1ccccc1)*; Sar = CNCC(=O)O

System: P388 leukemia ip, CD2F1 mice, survival T/C
Test: NCI In Vivo Anticancer Drug Screen. Data for tumor model P388 Leukemia (intraperitoneal) in CD2F1 (CDF1) mice
Details: endpoint: median survival time, higher = longer survival
Method in brief: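 Mice carrying the transplanted tumor received test compound or vehicle. Survival was recorded in each group, and the value is the treated-group measurement divided by that of the vehicle-treated control group.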

[1] = dose: 50.0 mg/kg/injection, schedule: Q01DX009 (ip), vehicle: saline
[2] = dose: 100.0 mg/kg/injection, schedule: Q01DX009 (ip), vehicle: saline
[3] = dose: 200.0 mg/kg/injection, schedule: Q01DX009 (ip), vehicle: saline
[4] = dose: 50.0 mg/kg/injection, schedule: Q01DX009 (ip), vehicle: Klucel (hydroxypropylcellulose) (HPC)
[5] = dose: 100.0 mg/kg/injection, schedule: Q01DX009 (ip), vehicle: Klucel (hydroxypropylcellulose) (HPC)
[6] = dose: 200.0 mg/kg/injection, schedule: Q01DX009 (ip), vehicle: Klucel (hydroxypropylcellulose) (HPC)
[7] = dose: 50.0 mg/kg/injection, schedule: Q01DX005 (ip), vehicle: saline with Tween-80
[8] = dose: 100.0 mg/kg/injection, schedule: Q01DX005 (ip), vehicle: saline with Tween-80
[9] = dose: 200.0 mg/kg/injection, schedule: Q01DX005 (ip), vehicle: saline with Tween-80
[10] = dose: 50.0 mg/kg/injection, schedule: Q01DX005 (ip), vehicle: Klucel (hydroxypropylcellulose) (HPC)
[11] = dose: 100.0 mg/kg/injection, schedule: Q01DX005 (ip), vehicle: Klucel (hydroxypropylcellulose) (HPC)
[12] = dose: 12.5 mg/kg/injection, schedule: Q01DX005 (ip), vehicle: saline with Tween-80
[13] = dose: 25.0 mg/kg/injection, schedule: Q01DX005 (ip), vehicle: saline with Tween-80

Measured: T/C

Cn1ccc2c1CC(=O)NC2=O
inactive: dose: 3.12 mg/kg/injection, schedule: Q04DX003 (ip), vehicle: Klucel (hydroxypropylcellulose) (HPC) 100 % of control | dose: 6.25 mg/kg/injection, schedule: Q04DX003 (ip), vehicle: Klucel (hydroxypropylcellulose) (HPC) 108 % of control | dose: 12.5 mg/kg/injection, schedule: Q04DX003 (ip), vehicle: Klucel (hydroxypropylcellulose) (HPC) 114 % of control | dose: 100.0 mg/kg/injection, schedule: Q04DX003 (ip), vehicle: Klucel (hydroxypropylcellulose) (HPC) 106 % of control

Cc1ccc2c(c1)C(O)C(N)CCO2 (stereo not given)
inactive: dose: 100.0 mg/kg/injection, schedule: Q04DX003 (ip), vehicle: saline 100 % of control | dose: 200.0 mg/kg/injection, schedule: Q04DX003 (ip), vehicle: saline 102 % of control

CCOP(=O)(Nc1ccc(C)cc1C)OCC
inactive: [1] 100 % of control | dose: 100.0 mg/kg/injection, schedule: Q01DX001 (ip), vehicle: saline 103 % of control | [2] 104 % of control | dose: 200.0 mg/kg/injection, schedule: Q01DX001 (ip), vehicle: saline 107 % of control | [3] 99 % of control | dose: 400.0 mg/kg/injection, schedule: Q01DX001 (ip), vehicle: saline 100 % of control

COc1cccc2c(=O)c(COC(C)=O)c(C)[nH]c12
inactive: dose: 60.0 mg/kg/injection, schedule: Q01DX005 (ip), vehicle: saline 112 % of control | dose: 120.0 mg/kg/injection, schedule: Q01DX005 (ip), vehicle: saline 112 % of control | dose: 240.0 mg/kg/injection, schedule: Q01DX005 (ip), vehicle: saline 112 % of control

COc1cc(CN)ccc1O
inactive: dose: 50.0 mg/kg/injection, schedule: Q01DX009 (ip), vehicle: saline with Tween-80 103 % of control | dose: 100.0 mg/kg/injection, schedule: Q01DX009 (ip), vehicle: saline with Tween-80 110 % of control | [2] 104 % of control | dose: 200.0 mg/kg/injection, schedule: Q01DX009 (ip), vehicle: saline with Tween-80 103 % of control | [3] 101 % of control | dose: 400.0 mg/kg/injection, schedule: Q01DX009 (ip), vehicle: saline with Tween-80 104 % of control | dose: 400.0 mg/kg/injection, schedule: Q01DX009 (ip), vehicle: saline 104 % of control | dose: 600.0 mg/kg/injection, schedule: Q01DX009 (ip), vehicle: saline 107 % of control

Cc1c([N+](=O)[O-])oc2c1C(=O)NCCC2
inactive: [4] 104 % of control | [5] 91 % of control | [6] 108 % of control

O=C(Nc1ccccc1C1=NCCN1)Nc1ccccc1C1=NCCN1
inactive: dose: 50.0 mg/kg/injection, schedule: Q01DX005 (ip), vehicle: saline 100 % of control | dose: 100.0 mg/kg/injection, schedule: Q01DX005 (ip), vehicle: saline 106 % of control

Cc1cc(NC(=O)c2ccc(C(=O)Nc3ccc(C4=NCCN4)c(C)c3)cc2)ccc1C1=NCCN1
inactive: dose: 100.0 mg/kg/injection, schedule: Q04DX003 (ip), vehicle: saline with Tween-80 118 % of control | dose: 200.0 mg/kg/injection, schedule: Q04DX003 (ip), vehicle: saline with Tween-80 104 % of control | dose: 400.0 mg/kg/injection, schedule: Q04DX003 (ip), vehicle: saline with Tween-80 104 % of control

Nc1[nH]c(=S)ncc1-c1ccc(Cl)c(Cl)c1
inactive: dose: 60.0 mg/kg/injection, schedule: Q01DX005 (ip), vehicle: saline with Tween-80 94 % of control | dose: 120.0 mg/kg/injection, schedule: Q01DX005 (ip), vehicle: saline with Tween-80 93 % of control | dose: 240.0 mg/kg/injection, schedule: Q01DX005 (ip), vehicle: saline with Tween-80 88 % of control

Cc1ccc(-n2nnc(-c3ccc(Cl)c(Cl)c3)n2)cc1
inactive: [7] 103 % of control | [8] 103 % of control | [9] 100 % of control

CCCOC(=O)/C=C/C(=O)N1CC(C)N(C(=O)/C=C/C(=O)OCCC)CC1C (stereo not given)
inactive: [10] 109 % of control | [11] 98 % of control | dose: 200.0 mg/kg/injection, schedule: Q01DX005 (ip), vehicle: Klucel (hydroxypropylcellulose) (HPC) 98 % of control

COc1ccc2c(c1)CC[n+]1c-2ccc2c1CCC2=O
inactive: [7] 111 % of control

O=C1C=CC(=C2SCCS2)C(O)=C1
inactive: [4] 100 % of control | [5] 93 % of control | [6] 97 % of control

CN(CC(=O)NC(Cc1ccccc1)C(=O)O)C(=O)OCc1ccccc1 (stereo not given) (Cbz-[Sar]-[ξF]-OH)
inactive: [7] 105 % of control | [8] 102 % of control | [9] 100 % of control

CCOC(=O)CSCC(N)=O
inactive: [1] 100 % of control | [2] 100 % of control | [3] 98 % of control

O=C(NCCCCCCCCCNC(=O)C12CC3CC(CC(C3)C1)C2)C12CC3CC(CC(C3)C1)C2
inactive: [12] 93 % of control | [13] 93 % of control | [7] 88 % of control | [9] 90 % of control

CCOC(=O)c1nc(OCC)nc(OCC)c1I
inactive: dose: 12.5 mg/kg/injection, schedule: Q01DX009 (ip), vehicle: distilled water + Tween-80 112 % of control | dose: 25.0 mg/kg/injection, schedule: Q01DX009 (ip), vehicle: distilled water + Tween-80 107 % of control | dose: 50.0 mg/kg/injection, schedule: Q01DX009 (ip), vehicle: distilled water + Tween-80 96 % of control | dose: 100.0 mg/kg/injection, schedule: Q01DX009 (ip), vehicle: distilled water + Tween-80 95 % of control

O=[C-]C(F)(F)F.[C-]#[O+].[C-]#[O+].[C-]#[O+].[C-]#[O+].[C-]#[O+].[Mn]
inactive: dose: 50.0 mg/kg/injection, schedule: Q01DX001 (ip), vehicle: other 100 % of control | dose: 100.0 mg/kg/injection, schedule: Q01DX001 (ip), vehicle: other 100 % of control

COc1cc2c(c3c1c(=O)c1ccccc1n3C)C=CC(C)(C)O2
inactive: dose: 7.5 mg/kg/injection, schedule: Q01DX009 (ip), vehicle: saline with Tween-80 99 % of control | [12] 92 % of control | dose: 15.0 mg/kg/injection, schedule: Q01DX009 (ip), vehicle: saline with Tween-80 98 % of control | dose: 25.0 mg/kg/injection, schedule: Q01DX005 (ip), vehicle: Klucel (hydroxypropylcellulose) (HPC) 97 % of control | [13] 92 % of control | dose: 30.0 mg/kg/injection, schedule: Q01DX009 (ip), vehicle: saline with Tween-80 103 % of control | [10] 112 % of control | [7] 112 % of control | [11] 118 % of control | [8] 113 % of control

CC1=C(c2ccccc2)C(=O)OC1(c1ccccc1)c1ccccc1
inactive: dose: 50.0 mg/kg/injection, schedule: Q01DX001 (ip), vehicle: Klucel (hydroxypropylcellulose) (HPC) 91 % of control | dose: 100.0 mg/kg/injection, schedule: Q01DX001 (ip), vehicle: Klucel (hydroxypropylcellulose) (HPC) 88 % of control | dose: 200.0 mg/kg/injection, schedule: Q01DX001 (ip), vehicle: Klucel (hydroxypropylcellulose) (HPC) 89 % of control

COc1cc(C=C2C(=O)C=CC2=O)cc(OC)c1O
inactive: dose: 1.25 mg/kg/injection, schedule: Q04DX002 (ip), vehicle: saline with Tween-80 102 % of control | dose: 2.5 mg/kg/injection, schedule: Q04DX002 (ip), vehicle: saline with Tween-80 103 % of control | dose: 5.0 mg/kg/injection, schedule: Q04DX002 (ip), vehicle: saline with Tween-80 102 % of control

Clc1nc(SC2=NCCN2)c2[nH]cnc2n1
inactive: dose: 5.0 mg/kg/injection, schedule: Q01DX009 (ip), vehicle: saline with Tween-80 100 % of control and 92 % of control | dose: 10.0 mg/kg/injection, schedule: Q01DX009 (ip), vehicle: saline with Tween-80 104 % of control and 113 % of control | dose: 20.0 mg/kg/injection, schedule: Q01DX009 (ip), vehicle: saline with Tween-80 105 % of control | dose: 40.0 mg/kg/injection, schedule: Q01DX009 (ip), vehicle: saline with Tween-80 100 % of control
